No end group written: not given here.
Columns and labels:
Format in all cases: binding
CCL7 = biological target: T1, CCL7 (Homo sapiens, UniProt P80098); experiment: Fluorescence polarisation (anisotropy) assay; conditions: fluorescence polarisation displacement assay
T1 construct: purchased Peprotech
Procedure: (§1) FIG. 14(B). Fluorescence polarisation assay showing binding of chemokines to P672_PEP-FITC. The measured fluorescence anisotropy (y-axis) of P672_PEP-FITC (50 nM) following binding to a fixed dose (1 μM)) of CCL7, CCL8, CCL18 and CXCL1 (negative control). […] Statistical significance was determined using one-way ANOVA with Sidak's correction for multiple comparisons using Graph Pad Prism 6. **=p<0.005, ****=P<0.00005, ns=not significant.
(§2) FIG. 15(C). Displacement of P672_PEP-FITC from CCL18 by P672_PEP. In each case 100 μM (++) or […] (+) of P672_PEP was incubated with P672_PEP-FITC (50 nM)/chemokine (1 μM CCL7 and CCL18; 500 nM CCL8) and the resulting anisotropy measured. A peptide with the P672_PEP sequence scrambled ([…]) served as a negative control (P672_PEP_SCRAM; […]). Experiment carried out in triplicate where each data point is the average of one experiment carried out in technical triplicate. Mean with SEM shown and statistical significance was determined using one-way ANOVA with Sidak's correction for multiple comparisons using Graph Pad Prism 6. *=p<0.05, ***=p<0.0005, ****=P<0.00005, ns=not significant.
(§3) Fluorescence polarization assays were performed using a Clariostar (BMG Tech) plate reader with the supplied FITC excitation and emission filters using 96 half area well plates (Corning). The buffer used (FP assay buffer) was 50 mM HEPES, 150 mM NaCl, 0.1% BSA, 0.002% TWEEN-20, 0.2% DMSO, pH 7.4 and the final volume in each well was 30 μL. Polarization was converted to anisotropy using the equation A=(2*P)/(3−P) where P is polarization and A is anisotropy. For each peptide tested the gain was set to 35 mP and adjusted to a well containing fluorescent peptide only. The polarization of the emitted light in the FITC emission channel was then determined. Experiments were performed as two technical and three biological replicates. Screening of P672 peptide fragments was achieved through incubation of each peptide (50 nM) with 1 μM CCL8 (Peprotech) for 30 minutes in FP assay buffer and the resulting anisotropy of the emitted light determined as above. The chemokine cross binding screen was performed by incubating 1 μM chemokine (Peprotech) with 50 nM BK1.1FITC for half an hour in FP assay buffer and the resulting anisotropy of the emitted light determined as above. To monitor BK1.1FITC Ala mutants of binding to CCL8, 50 nM labelled peptide was incubated with varying concentrations of recombinant CCL8 (0-25 μM, final) in 30 μL FP assay buffer for 30 minutes and the resulting anisotropy of the emitted light determined as above. The anisotropy was plotted as a function of CCL8 concentration and fitted to the equation: Y=Bmax*X/(KD+X)+NS*X+Background, where Y is the measured anisotropy, X is the concentration of CCL8 added, Bmax is the maximum binding, KD is the equilibrium dissociation constant, NS is the slope of the nonlinear regression and Background is the anisotropy when no CCL8 is present, in Graph Pad Prism. Displacement assays were carried out with CCL7, CCL8, and CCL18 (Peprotech, 1 μM). […] For all FP assays, the experiments were carried out as two technical and three biological replicates.

CCL18 = biological target: T2, CCL18 (Homo sapiens, UniProt P55774); experiment: Fluorescence polarisation (anisotropy) assay; conditions: fluorescence polarisation displacement assay
T2 construct: purchased Peprotech
T2 sequence (P55774 21-89): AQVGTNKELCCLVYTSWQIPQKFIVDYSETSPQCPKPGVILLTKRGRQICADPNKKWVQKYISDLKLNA
Procedure: as §1, §2, §3

[1] = biological target: T3, His-tagged P672-biotinylated CCL3 interaction (Homo sapiens, UniProt P10147); experiment: AlphaScreen disruption of P672:chemokine interaction; conditions: AlphaScreen dose-response
T3 construct: host or cells: P672: HEK293F (in-house); biotinylated CCL3: not described
T3 sequence (P10147 24-92): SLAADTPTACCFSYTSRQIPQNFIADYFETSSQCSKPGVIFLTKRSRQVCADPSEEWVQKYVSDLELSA
Procedure: (§4) B-D. Effect of indicated peptides at a concentration of 100 μM on a His-tagged P672-biotinylated CCL8, CCL2 or CCL3 interaction respectively using an AlphaScreen assay. In each panel. […] Data are presented as mean±s.e.m. of three independent experiments, shown as individual data points.
(§5) Data are shown as mean of two technical replicates. Curves were fitted with 4 parameters to estimate IC50.
(§6) The binding of these peptides to CCL8 was assayed by examining their ability to disrupt the P672:CCL8 interaction using an AlphaScreen assay (FIG. 20E, H). […] BK1 derivatives were tested for their ability to inhibit P672 interactions with CCL2 and CCL3 using AlphaScreen (FIG. 20 F, G, I, J).
(§7) AlphaScreen® Histidine detection kit was purchased from PerkinElmer (6760619M lot: 2457886) and the assay was set up in white bottom Proxiplate™ 384 Plus microplates (PerkinElmer) following the manufacturer's instructions. The assay buffer used was 50 mM HEPES, 150 mM NaCl, 0.1% BSA, 0.01% Tween20, 1% DMSO, pH 7.5 and the final volume in each well was 20 μL. Briefly, biotinylated chemokine (recombinant, final concentration 1.25 nM (CCL8), 5 nM (CCL2) and 2.5 nM (CCL3)) was pre-incubated at room temperature for 15 min with different concentrations of each peptide. His-tagged P672 (final concentration 2.5 nM (CCL8), 5 nM (CCL2) and 1.25 nM (CCL3)) was then added to each well and the plate was incubated at room temperature for 30 min. Finally, acceptor and donor beads were added as a 1:1 suspension in buffer to each well and the plate was further incubated at RT for 1 h. Data was obtained by reading the plate using a Pherastar FSX plate reader (excitation 680 nm, emission 570 nm) and was analysed using GraphPad Prism.

[2] = biological target: T4, His-tagged P672-biotinylated CCL2 interaction (Homo sapiens, UniProt P13500); experiment: as above
T4 construct: host or cells: P672: HEK293F (in-house); biotinylated CCL2: not described
Procedure: as §4, §5, §6, §7

T4 sequence (P13500 24-99): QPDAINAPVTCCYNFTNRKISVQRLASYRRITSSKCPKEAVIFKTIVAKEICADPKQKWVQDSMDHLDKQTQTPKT
T1 sequence (P80098 24-99): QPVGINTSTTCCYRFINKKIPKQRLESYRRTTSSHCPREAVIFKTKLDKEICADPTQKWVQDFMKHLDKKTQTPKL

Substance: EDEDYEDFFKPVTAYF-NH2 [BK1.1]
- Displacement of FITC-labelled peptide from CCL7 by unlabelled peptide (CCL7): indicate its binding
- Displacement of FITC-labelled peptide from CCL7 by unlabelled peptide (CCL7; listed as P672_PEP): able to displace labelled peptide bound to chemokine
- Displacement of FITC-labelled peptide from CCL18 by unlabelled peptide (CCL18): indicate its binding
- Displacement of FITC-labelled peptide from CCL18 by unlabelled peptide (CCL18; listed as P672_PEP): able to displace labelled peptide bound to chemokine
- Inhibition of P672 interaction with CCL3 (BK1 derivatives) [1]: did not inhibit
- Inhibition of P672 interaction with CCL2 (BK1 derivatives) ([2]; AlphaScreen dose-response): did not inhibit
- Disruption of the P672-CCL2 interaction ([2]; AlphaScreen, peptide 100 μM): disrupted

Reference: patent US20200247855A1, “THERAPY AND DIAGNOSTICS” (OXFORD UNIVERSITY INNOVATION LIMITED, priority 2017, published 2020)
